Measured values reported in ChEMBL document CHEMBL5042477, “Potent Cyclic Peptide Inhibitors of FXIIa Discovered by mRNA Display with Genetic Code Reprogramming” (J Med Chem, 2021).
Calls of active or inactive are those of the source. No cut-off for these calls is given here. Where a SMILES comes first, the peptide text is derived from it. Bridges are numbered along the chain shown (N, C = ends).

Tests used:
[1] = biological target: T1, Coagulation factor XII (Homo sapiens) (UniProt P00748); assay: Inhibition of human factor 12a using H-D-Pro-Phe-Arg-p-nitroanilide as chromogenic substrate assessed as liberation of p-nitroaniline at […] measured every 5 mins for 60 min by multimode plate reader analysis
T1 sequence (whole entry): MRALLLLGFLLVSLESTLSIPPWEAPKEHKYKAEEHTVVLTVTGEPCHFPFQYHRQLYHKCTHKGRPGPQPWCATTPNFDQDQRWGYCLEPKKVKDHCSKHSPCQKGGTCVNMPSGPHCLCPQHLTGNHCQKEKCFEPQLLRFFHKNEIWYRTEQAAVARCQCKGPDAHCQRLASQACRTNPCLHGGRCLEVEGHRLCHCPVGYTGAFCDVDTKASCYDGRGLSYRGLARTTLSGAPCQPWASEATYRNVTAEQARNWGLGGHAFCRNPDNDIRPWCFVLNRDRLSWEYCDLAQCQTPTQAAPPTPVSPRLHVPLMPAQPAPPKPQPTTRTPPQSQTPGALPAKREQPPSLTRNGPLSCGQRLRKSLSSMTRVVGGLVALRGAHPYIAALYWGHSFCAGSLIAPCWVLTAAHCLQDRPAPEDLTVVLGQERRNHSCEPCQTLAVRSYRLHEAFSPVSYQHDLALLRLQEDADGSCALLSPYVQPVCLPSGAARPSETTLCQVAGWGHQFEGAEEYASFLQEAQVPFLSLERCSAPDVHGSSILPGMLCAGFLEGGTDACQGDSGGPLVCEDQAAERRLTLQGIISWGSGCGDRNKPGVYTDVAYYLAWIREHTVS

Coagulation factor X = Coagulation factor X (Homo sapiens, UniProt P00742); assay: Inhibition of human factor 10a using methoxycarbonyl-D-Nle-Gly-Arg-pNA as substrate measured after 60 mins by microplate reader analysis
Coagulation factor XII [2] = biological target: T2, Coagulation factor XII (Homo sapiens, UniProt P00748); assay: Inhibition of human factor 12a using H-D-Pro-Phe-Arg-p-nitroanilide as chromogenic substrate assessed as liberation of p-nitroaniline measured every 5 mins for 60 min by multimode plate reader analysis
T2 sequence (P00748 whole entry): T1 sequence (whole entry)

[3] = biological target: Urokinase-type plasminogen activator (Homo sapiens, UniProt P00749); assay: Inhibition of Urokinase-type plasminogen activator (unknown origin)
Plasma kallikrein = Plasma kallikrein (Homo sapiens, UniProt P03952); assay: Inhibition of plasma kallikrein (unknown origin); assay type: cell-free
Plasminogen = Plasminogen (Homo sapiens, UniProt P00747); assay: Inhibition of plasmin (unknown origin)
Coagulation factor VII = biological target: T3, Coagulation factor VII (Homo sapiens, UniProt P08709); assay: Inhibition of factor 7a (unknown origin)
T3 sequence (P08709 whole entry): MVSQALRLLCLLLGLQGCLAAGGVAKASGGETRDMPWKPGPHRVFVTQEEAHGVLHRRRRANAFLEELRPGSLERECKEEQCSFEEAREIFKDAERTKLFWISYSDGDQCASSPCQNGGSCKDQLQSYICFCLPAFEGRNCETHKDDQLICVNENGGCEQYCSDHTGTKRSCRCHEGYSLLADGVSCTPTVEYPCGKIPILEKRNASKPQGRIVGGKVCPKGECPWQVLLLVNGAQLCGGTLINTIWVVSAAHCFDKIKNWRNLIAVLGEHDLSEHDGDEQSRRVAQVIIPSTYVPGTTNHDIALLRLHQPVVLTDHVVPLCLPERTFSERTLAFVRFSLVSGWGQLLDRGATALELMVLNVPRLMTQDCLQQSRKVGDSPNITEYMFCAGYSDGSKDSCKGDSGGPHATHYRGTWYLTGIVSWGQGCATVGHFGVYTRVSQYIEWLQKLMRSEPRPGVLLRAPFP

Coagulation factor XII [4] = biological target: T2, Coagulation factor XII; assay: Inhibition of human factor 12a using H-D-Pro-Phe-Arg-p-nitroanilide as chromogenic substrate assessed as liberation of p-nitroaniline in presence of BSA measured every 5 mins for 60 min by multimode plate reader analysis
Plasma [5] = assay: Anticoagulant activity in pooled human plasma assessed as prolongation of activated partial thromboplastin time at 12.5 uM incubated for 7 mins; assay type: functional, cell-free
Plasma [6] = assay: Anticoagulant activity in pooled human plasma assessed as reduction in ellagic acid induced thrombin generation using Z-GGR-AMC as fluorogenic substrate by calibrated automated thrombogram analysis; assay type: functional, cell-free
Trypsin = Trypsin (Homo sapiens, UniProt P07477+P07478+P35030); assay: Inhibition of trypsin (unknown origin); assay type: protein assay
Homo sapiens = species: Homo sapiens; assay: Selectivity index, ratio of IC50 for inhibition of human factor 12a using H-D-Pro-Phe-Arg-p-nitroanilide as chromogenic substrate to IC50 for inhibition of human factor 10a using methoxycarbonyl-D-Nle-Gly-Arg-pNA as substrate
Plasma [7] = assay: Anticoagulant activity in pooled human plasma assessed as prolongation of prothrombin time at 12.5 uM incubated for 7 mins; assay type: functional, cell-free
Plasma [8] = assay: Anticoagulant activity in FXII-deficient human plasma assessed as effect on total thrombin generation using Z-GGR-AMC as fluorogenic substrate at 8 uM by calibrated automated thrombogram analysis; assay type: functional, cell-free
[9] = Stability in pooled human plasma measured upto 24 hrs by UPLC-MS analysis; assay type: ADME, cell-free
[10] = biological target: T1, Coagulation factor XII (Homo sapiens); assay: Inhibition of human factor 12a activation in citrated pooled human plasma assessed as inhibition of bradykinin release incubated for 10 mins followed by kaolin addition and measured after 15 mins by ELISA; assay type: cell-free; details: dose 1-200 µM, time 25.0 min
Plasma [11] = assay: Anticoagulant activity in pooled human plasma assessed as prolongation of activated partial thromboplastin time at 1.25 uM incubated for 7 mins; assay type: functional, cell-free
Plasma [12] = assay: Anticoagulant activity in pooled human plasma assessed as reduction in ellagic acid induced thrombin generation using Z-GGR-AMC as fluorogenic substrate at 4 uM by calibrated automated thrombogram analysis; assay type: functional, cell-free
[13] = biological target: T1, Coagulation factor XII (Homo sapiens); assay: Inhibition of human factor 12a using H-D-Pro-Phe-Arg-p-nitroanilide as chromogenic substrate assessed as liberation of p-nitroaniline at 2 mM measured every 5 mins for 60 min by multimode plate reader analysis

Coagulation factor X, sequence (P00742 41-179 limits assumed): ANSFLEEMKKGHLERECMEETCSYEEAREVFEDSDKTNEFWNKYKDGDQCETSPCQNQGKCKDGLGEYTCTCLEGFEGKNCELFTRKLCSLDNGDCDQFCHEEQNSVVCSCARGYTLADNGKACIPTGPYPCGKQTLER
Coagulation factor X, sequence (P00742 235-488 limits assumed): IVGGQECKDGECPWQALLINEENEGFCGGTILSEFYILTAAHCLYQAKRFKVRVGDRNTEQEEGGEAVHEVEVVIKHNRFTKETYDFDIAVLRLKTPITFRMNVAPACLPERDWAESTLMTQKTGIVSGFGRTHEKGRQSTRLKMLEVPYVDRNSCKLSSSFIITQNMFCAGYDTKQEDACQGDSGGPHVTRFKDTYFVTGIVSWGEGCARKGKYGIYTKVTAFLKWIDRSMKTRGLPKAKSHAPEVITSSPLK
Plasma kallikrein, sequence (P03952 20-390 limits assumed): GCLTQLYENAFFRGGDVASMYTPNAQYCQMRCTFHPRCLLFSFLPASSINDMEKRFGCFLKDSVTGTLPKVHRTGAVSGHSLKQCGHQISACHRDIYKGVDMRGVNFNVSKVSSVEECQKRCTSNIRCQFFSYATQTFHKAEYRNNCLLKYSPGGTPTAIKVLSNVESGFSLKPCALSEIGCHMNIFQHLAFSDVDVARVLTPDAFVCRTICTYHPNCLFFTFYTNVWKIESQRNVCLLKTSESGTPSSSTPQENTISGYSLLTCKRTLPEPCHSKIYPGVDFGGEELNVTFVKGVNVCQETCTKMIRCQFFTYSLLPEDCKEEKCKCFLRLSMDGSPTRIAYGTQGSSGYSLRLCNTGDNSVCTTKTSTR
Plasma kallikrein, sequence (P03952 391-638 limits assumed): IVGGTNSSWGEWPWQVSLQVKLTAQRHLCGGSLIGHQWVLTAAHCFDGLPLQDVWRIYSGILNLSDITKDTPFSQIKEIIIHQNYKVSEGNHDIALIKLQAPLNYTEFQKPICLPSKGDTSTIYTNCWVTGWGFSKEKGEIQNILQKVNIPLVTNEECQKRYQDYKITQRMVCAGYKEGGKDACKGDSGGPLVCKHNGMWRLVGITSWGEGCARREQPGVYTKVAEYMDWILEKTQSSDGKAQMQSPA
Plasminogen, sequence (P00747 97-580 limits assumed): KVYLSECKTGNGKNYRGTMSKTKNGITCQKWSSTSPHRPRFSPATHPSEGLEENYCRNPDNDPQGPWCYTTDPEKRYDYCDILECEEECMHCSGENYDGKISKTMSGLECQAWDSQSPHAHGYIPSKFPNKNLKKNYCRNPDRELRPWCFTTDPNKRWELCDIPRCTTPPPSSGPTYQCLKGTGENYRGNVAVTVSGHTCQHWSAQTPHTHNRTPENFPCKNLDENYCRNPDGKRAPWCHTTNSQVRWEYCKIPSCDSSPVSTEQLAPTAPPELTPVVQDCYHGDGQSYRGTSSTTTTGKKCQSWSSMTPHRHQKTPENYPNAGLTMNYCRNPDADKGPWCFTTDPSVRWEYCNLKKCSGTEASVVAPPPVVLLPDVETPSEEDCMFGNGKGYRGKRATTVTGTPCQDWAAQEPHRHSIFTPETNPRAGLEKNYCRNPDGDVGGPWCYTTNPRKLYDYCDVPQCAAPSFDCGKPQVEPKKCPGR
Plasminogen, sequence (P00747 581-810 limits assumed): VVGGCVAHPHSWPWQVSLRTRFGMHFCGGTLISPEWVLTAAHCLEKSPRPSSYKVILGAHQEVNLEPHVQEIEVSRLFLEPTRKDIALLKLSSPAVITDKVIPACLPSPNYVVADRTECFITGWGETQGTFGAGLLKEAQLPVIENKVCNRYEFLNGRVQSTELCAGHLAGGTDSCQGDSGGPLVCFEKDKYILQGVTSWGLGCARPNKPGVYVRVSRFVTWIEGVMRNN

Row | IC50 (Coagulation factor X) [nM] | IC50 (Coagulation factor XII [2]) [nM] | IC50 [3] [nM] | IC50 (Plasma kallikrein) [nM] | IC50 (Plasminogen) [nM] | IC50 (Coagulation factor VII) [nM] | IC50 (Coagulation factor XII [4]) [nM] | EC50 (Plasma [6]) [nM] | IC50 (Trypsin) [nM] | Ratio IC50 (Homo sapiens) | Compound | Activity (Plasma [5]) | Activity (Plasma [7]) | Activity (Plasma [8]) | also measured
1 | – | – | – | – | – | – | – | – | – | – | CC(C)C[C@@H]1NC(=O)[C@H](Cc2ccc(O)cc2)NC(=O)CSC[C@@H](C(N)=O)NC(=O)CNC(=O)CNC(=O)[C@H](CCCNC(=N)N)NC(=O)[C@H](CC(=O)O)NC(=O)[C@H](CCCCN)NC(=O)[C@@H]2CCCN2C(=O)[C@H](CCCNC(=N)N)NC(=O)[C@H](Cc2ccccc2)NC(=O)[C@@H](CCCNC(=N)N)NC1=O | – | – | – | inhibition [1]: inactive
2 | > 100000 | > 100000 | – | – | – | – | – | – | – | – | CC[C@H](C)[C@@H]1NC(=O)[C@H](CC(C)C)NC(=O)[C@H](Cc2ccc(O)cc2)NC(=O)CSC[C@@H](C(=O)N[C@H](C(=O)N[C@@H](CO)C(=O)N[C@@H](CCCNC(=N)N)C(=O)N[C@@H](CCCNC(=N)N)C(=O)N[C@@H](C)C(=O)N[C@@H](Cc2ccccc2)C(=O)N[C@@H](Cc2ccccc2)C(=O)N[C@H](C(=O)N[C@@H](CC(=O)O)C(=O)N[C@@H](CCC(N)=O)C(=O)N[C@@H](CO)C(N)=O)[C@@H](C)O)C(C)C)NC1=O ({CH2CO}-YLICVSRRAFFTDQS-NH2; thioether N-4) | – | – | – | –
3 | 35000 | 97 | > 100000 | 43000 | 61000 | > 100000 | 157 | 1400 | 61000 | 100 | CC(C)C[C@@H]1NC(=O)[C@H](Cc2ccc(O)cc2)NC(=O)CSC[C@@H](C(=O)N[C@@H](CCCNC(=N)N)C(=O)N[C@@H](CCCNC(=N)N)C(=O)N[C@@H](C)C(=O)N2CCC[C@H]2C(=O)N[C@@H](CC(N)=O)C(=O)N[C@@H](CO)C(N)=O)NC(=O)[C@H](CC(C)C)NC(=O)[C@H]([C@@H](C)O)NC(=O)[C@H](Cc2ccccc2)NC(=O)[C@H](CCCNC(=N)N)NC1=O ({CH2CO}-YLRFTLCRRAPNS-NH2; thioether N-7) | Active | Active | – | –
4 | 41000 | 180 | – | – | – | – | – | – | – | – | CC[C@H](C)[C@@H]1NC(=O)[C@H](C)NC(=O)[C@H](CCCCN)NC(=O)[C@H](Cc2ccccc2)NC(=O)[C@H](CCCNC(=N)N)NC(=O)[C@H](CC(C)C)NC(=O)[C@H](Cc2ccc(O)cc2)NC(=O)CSC[C@@H](C(N)=O)NC(=O)CNC(=O)CNC(=O)[C@H](CC(C)C)NC(=O)[C@H](CO)NC1=O ({CH2CO}-YLRFKAISLGGC-NH2; thioether N-12) | – | – | – | –
5 | 17000 | 234 | – | – | – | – | 311 | 3200 | – | 100 | CC[C@H](C)[C@@H]1NC(=O)[C@H](Cc2c[nH]cn2)NC(=O)[C@H](CCCCN)NC(=O)[C@H](Cc2ccccc2)NC(=O)[C@H](CCCNC(=N)N)NC(=O)[C@H](CC(C)C)NC(=O)[C@H](Cc2ccc(O)cc2)NC(=O)CSC[C@@H](C(N)=O)NC(=O)CNC(=O)CNC(=O)[C@H](CC(C)C)NC(=O)[C@H](CO)NC1=O ({CH2CO}-YLRFKHISLGGC-NH2; thioether N-12) | Active | Active | inactive | –
6 | > 100000 | 331 | > 100000 | > 100000 | > 100000 | > 100000 | 611 | 2800 | 12000 | – | CC(C)C[C@@H]1NC(=O)[C@H](Cc2ccc(O)cc2)NC(=O)CSC[C@@H](C(N)=O)NC(=O)CNC(=O)CNC(=O)[C@H](CCC(N)=O)NC(=O)[C@H](CC(N)=O)NC(=O)[C@H]([C@@H](C)O)NC(=O)[C@@H]2CCCN2C(=O)[C@H](CCCCN)NC(=O)[C@H](CC(C)C)NC(=O)[C@H](CCCNC(=N)N)NC1=O ({CH2CO}-YLRLKPTNQGGC-NH2; thioether N-12) | Active | – | inactive | Stability [9]: Stable; inhibition [10]: Dose-Dependent Effect
7 | 59000 | 62 | > 100000 | > 100000 | > 100000 | > 100000 | 61 | 700 | > 31000 | 100 | CC(C)C[C@@H]1NC(=O)[C@H](Cc2ccc(O)cc2)NC(=O)CSC[C@@H](C(N)=O)NC(=O)CNC(=O)CNC(=O)[C@H](CCCNC(=N)N)NC(=O)[C@H](CC(=O)O)NC(=O)[C@H](CCCCN)NC(=O)[C@@H]2CCCN2C(=O)[C@H](CCCNC(=N)N)NC(=O)[C@H](Cc2ccccc2)NC(=O)[C@H](CCCNC(=N)N)NC1=O | Active | Active | inactive | Stability [9]: Stable; Activity (Plasma [11]): Active; inhibition [10]: Dose-Dependent Effect; Activity (Plasma [12]): Active
8 | – | 142 | – | – | – | – | 173 | – | – | – | CC(C)C[C@@H]1NC(=O)[C@H](CCC(N)=O)NC(=O)[C@H](CCCNC(=N)N)NC(=O)[C@@H]2CSCCC(=O)N3CN(CN(C3)C(=O)CCSC[C@H](NC(=O)[C@@H](N)CCCNC(=N)N)C(=O)N[C@@H](Cc3ccccc3)C(=O)N[C@@H](CCCNC(=N)N)C(=O)N[C@@H](CC(C)C)C(=O)N3CCC[C@H]3C(=O)N2)C(=O)CCSC[C@@H](C(=O)N[C@@H](CCCNC(=N)N)C(=O)O)NC(=O)[C@H](CCCNC(=N)N)NC1=O | – | – | – | –
9 | – | – | – | – | – | – | – | – | – | – | Ac-YLRFR-NH2 | – | – | – | inhibition [13]: inactive
10 | 2200 | 372 | – | – | – | – | 673 | – | – | – | CC(C)C[C@H](NC(=O)[C@H](C)NC(=O)[C@H](CO)NC(=O)[C@H](CCC(=O)O)NC(=O)[C@H](Cc1ccc(O)cc1)NC(=O)[C@H](CCCNC(=N)N)NC(=O)[C@@H]1CSCC(=O)N[C@@H](Cc2ccc(O)cc2)C(=O)N[C@@H](CC(C)C)C(=O)N[C@@H](CCCNC(=N)N)C(=O)N[C@@H](Cc2ccccc2)C(=O)N[C@@H]([C@@H](C)O)C(=O)N[C@@H](CC(C)C)C(=O)N1)C(=O)N[C@@H](CO)C(N)=O ({CH2CO}-YLRFTLCRYESALS-NH2; thioether N-7) | – | – | – | –
